Assay results: publication PMC6835155, “Lessons from LIMK1 enzymology and their impact on inhibitor design” (Biochemical Journal, 2019)
Read-outs that look alike come from different tables or passages of the source.

Tests used:
LIMK1KD [1] = molecular target: T1, LIMK1KD (Homo sapiens, UniProt P53667); test: Differential (dynamic) scanning fluorimetry (DSF) assay, LIMK1KD; format: binding; conditions: 2 µM LIMK1KD, compound 10 µM, single shot; for ΔTm at 10 µM: read-out: TM Shift LIMK1 (K)
T1 construct: His6 (N, cleaved yes); made in house; host or cells: baculovirus; Sf9 for virus, TriEx insect cells for expression
T1 sequence (P53667 330-637): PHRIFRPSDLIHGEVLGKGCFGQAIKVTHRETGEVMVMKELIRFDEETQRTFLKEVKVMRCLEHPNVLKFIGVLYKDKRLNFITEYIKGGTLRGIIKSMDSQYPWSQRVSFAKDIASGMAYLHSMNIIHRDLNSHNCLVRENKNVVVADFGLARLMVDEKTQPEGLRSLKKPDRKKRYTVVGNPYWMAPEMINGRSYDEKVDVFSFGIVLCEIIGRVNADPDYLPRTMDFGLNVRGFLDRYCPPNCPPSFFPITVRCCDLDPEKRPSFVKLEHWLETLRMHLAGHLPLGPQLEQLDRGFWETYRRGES

LIMK1KD [2] = molecular target: T1, LIMK1KD; test: RapidFire mass spec kinase activity assay (CFL1 phosphorylation); format: biochemical; conditions: 40 nM LIMK1KD, 2 µM CFL1, 800 µM ATP, 60 min; read-out: LIMK1 IC50
LIMK2KD = molecular target: T2, LIMK2KD (Homo sapiens, UniProt P53671); test: Differential (dynamic) scanning fluorimetry (DSF) assay, LIMK2KD; format: binding; conditions: LIMK2KD, compound 10 µM, single shot; for ΔTm at 10 µM: read-out: TM Shift LIMK2 (K)
T2 construct: The cDNA coding for LIMK2 residues 330 to 632 was PCR amplified; His6 (N, cleaved yes); made in house; host or cells: baculovirus; Sf9 for virus, TriEx insect cells for expression
T2 sequence (P53671 330-632): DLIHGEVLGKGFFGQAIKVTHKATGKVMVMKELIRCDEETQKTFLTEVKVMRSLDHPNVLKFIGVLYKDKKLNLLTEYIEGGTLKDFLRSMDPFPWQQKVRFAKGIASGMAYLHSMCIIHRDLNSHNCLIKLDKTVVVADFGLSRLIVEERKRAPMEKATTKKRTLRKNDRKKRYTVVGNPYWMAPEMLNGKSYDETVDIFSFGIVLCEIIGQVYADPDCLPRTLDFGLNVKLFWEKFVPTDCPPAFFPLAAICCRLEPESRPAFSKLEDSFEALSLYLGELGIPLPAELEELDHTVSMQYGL

LIMK1 = conditions: cited from earlier work

Compound | ΔTm at 10 µM (LIMK1KD [1]) [°C] | IC50 (LIMK1KD [2]) [nM] | ΔTm at 10 µM (LIMK2KD) [°C] | TM Shift LIMK1 (K) (LIMK1KD [1]) | also measured
CNC(=O)c1cc(Oc2ccc(NC(=O)Nc3cc(C(C)(C)C)nn3-c3ccc4ncccc4c3)c(F)c2)ccn1 [DCC-2036 (Rebastinib), Rebastinib] | 10 | 75 | 4.8 | – | –
Cc1c[nH]c2ncnc(N3CCC(CN)(C(=O)Nc4cccc(OC(=O)N(C)C)c4)CC3)c12 [LX-7101] | – | – | – | – | IC50 (LIMK1; read-out: LIMK1 IC50): 32 nM
Cn1cc(-c2[nH]c3cc(NC(=O)[C@H](N)C4CCCCC4)cc4c3c2C=NNC4=O)cn1 [PF-477736] | 11.1 | 4.4 | 9 | 11 | –
CC(C)(C)c1nc(-c2cccc(NS(=O)(=O)c3c(F)cccc3F)c2F)c(-c2ccnc(N)n2)s1 [Dabrafenib (GSK2118436), Dabrafenib] | 10.3 | 14 | 11.1 | 10 | TM Shift LIMK2 (K) (LIMK2KD; 10 µM): 11 K
CCc1ccc(/C=C2/SC(=S)NC2=O)cc1 [10058-F4] | – | – | – | 0.3 | TM Shift LIMK2 (K) (LIMK2KD): 1.7 K
Cc1ncc(-c2ccnc(Nc3ccc(S(C)(=O)=O)cc3)n2)n1C(C)C [AZD5438] | 4.4 | – | 1.7 | – | –
